According to patent US9458463B2, “Method for treatment of diabetes by a small molecule inhibitor for GRK5” (MAX-PLANCK-GESELLSCHAFT ZUR FÖRDERUNG DER WISSENSCHAFTEN …, priority 2010, dated 2016):

Key:
[1] = test system: beta TC6 cells; assay: Cell viability assay (CellTiter-Glo / automated cell number) in beta TC6; type: cell-based; details: Mus musculus, read-out: Inhibition of cell viability IC50
Text: (§1) Luminescent cell viability assay. For the detection of cell viability, the CellTiter-Glo® Luminescent Cell Viability Assay was used. This test is based on a luciferase reaction to measure the amount of ATP in cells. This correlates directly with the number of cells and their viability because cells lose the ability to synthesize ATP directly after e.g. loss of membrane integrity or a cytotoxic event. The protocol was adapted to 24 well plates and to the different culture conditions resulting in a standardized protocol which is described below. Cell lysis, inhibition of endogenous ATPases and detection of ATP was performed by adding the CellTiter-Glo® Reagent to the culture wells. Per well, 100 μl reagent were mixed with the same volume of proper Medium. Lysing of the cells took place by 10 min incubation at RT and moderate shaking. Three times 50 μl cell lysate was transferred into a white 96 well plate to eliminate stray light, and the bioluminescence was measured.
(§2) In a 96 well dish 10000 cells per well (100 μl) were seed and treated for 72 h. At the end of the treatment, cells were fixed with 4% paraformaldehyde in PBS for 15 minutes, permeabilized with 0.1% triton-X 100 in PBS for 15 minutes and stained with Hoechst 33342 (20 μg/ml in PBS; dilute from 20 mg/ml stock) directly to cells in 100 μl medium in PBS for 30 minutes at 37° C. Stained cells were imaged with a Cellomics ArrayScan VT I automated microscope. Images were analyzed with vHCS Scan Target Activation software v5.1.2 to identify apoptotic cells. Six fields per well of a 96 well plate we re-imaged at 10× magnification. First, cells were identified by their nuclei staining in channel 1 of Cellomics and their amount. Staining intensity was plotted and compared between NT controls and compound treated cells. Finally, data was obtained using vHCS View software v 5.1.2 and the numbers of cells present in the 96 well were identified as “Valid Object Count” whereas the percentage of infection was determined as “% selected”. IC50 values have been calculated accordingly.

[2] = biological target: T1, full length GRK5 (Homo sapiens, UniProt P34947); assay: GRK5 kinase activity assay, ADP Glo Kinase Assay technology (Promega); type: biochemical; details: group II; ADP Glo Kinase Assay (Table 9-B)
T1 construct: 6/2 fold concentrated full length GRK5 (Millipore, #14-714) in reaction buffer; purchased Millipore 14-714
T1 sequence (P34947 whole entry): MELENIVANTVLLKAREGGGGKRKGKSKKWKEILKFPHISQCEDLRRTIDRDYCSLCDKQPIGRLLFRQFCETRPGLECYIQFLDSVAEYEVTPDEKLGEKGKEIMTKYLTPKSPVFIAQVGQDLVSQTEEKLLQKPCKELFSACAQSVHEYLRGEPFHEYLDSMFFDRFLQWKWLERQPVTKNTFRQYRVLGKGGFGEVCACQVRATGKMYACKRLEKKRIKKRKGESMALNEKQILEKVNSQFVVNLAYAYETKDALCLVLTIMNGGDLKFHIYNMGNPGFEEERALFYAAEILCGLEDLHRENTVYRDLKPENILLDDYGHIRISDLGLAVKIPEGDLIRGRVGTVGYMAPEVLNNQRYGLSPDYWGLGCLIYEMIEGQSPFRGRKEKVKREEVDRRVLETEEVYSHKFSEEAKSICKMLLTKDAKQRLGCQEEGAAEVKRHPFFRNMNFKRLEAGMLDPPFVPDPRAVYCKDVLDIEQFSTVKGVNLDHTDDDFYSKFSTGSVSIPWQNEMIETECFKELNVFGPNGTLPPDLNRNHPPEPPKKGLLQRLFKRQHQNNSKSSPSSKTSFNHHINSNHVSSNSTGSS
Experimental: The maximal compound assay concentration was set to 100 μM, representing the compound assay concentration used in the primary screen.
Increasing concentrations of GRK5 are incubated together with 100 μM ATP in the absence and presence of 10 μM casein in a reaction buffer. Within this incubation non-phosphorylated casein is converted into phosphorylated casein and ATP is converted into ADP. Thereafter nonconverted ATP is digested into AMP by addition of the ADP-Glo™ Reagent. Subsequently the ADP that is produced by GRK5 activity is phosphorylated back to ATP by addition of Promega Kinase Detection Reagent. These ATP levels serve as measure for the GRK5 activity and are quantified by a luciferase/luciferin reaction.
For GRK5 kinase activity assay, the following protocol was used:
The reaction buffer used was composed of: 20 mM MES pH 6.0, 1 mM DTT, 10 mM MgCl2, 0.01% Tween20 and the reaction volume was 6 μL.
Firstly 4 μL 6/4 fold concentrated substrate and 6/4 fold concentrated ATP in 1 fold concentrated reaction buffer are added to each well of the assay plate. Subsequently 67 nL […] concentrated test compound in 100% DMSO are added to each well except to C− and C+ wells using pin tool. Then 67 nL 100% DMSO are pipetted to C− (no kinase, no compound) and C+ (no compound) wells using pin-tool and 2 μL reaction buffer are added to C− wells. […] After incubation for 120 min. at room temperature 6 μL ADP-Glo™ Reagent (ADP Glo™ Kinase Assay Kit: Promega, V9101) are added to each well to stop the kinase reaction and deplete the unconsumed ATP. After a second incubation for 40 min. at room temperature 12 μL of Kinase Detection Reagent are added to convert ADP to ATP and start luciferase/luciferin reaction for detection of ATP. […] Finally, after incubation for 40 min at room temperature the luminescence intensity was measured.
The activity of the compounds was classified according to IC50 for binding sites of Grk5 into the following ranges:
8800 Customer compounds were screened for their ability to inhibit the enzymatic activity of GRK5. Screening was performed using the ADP Glo™ Kinase Assay technology (Promega). The small molecular weight compounds were delivered at 10 mM stock concentration and were tested at a final assay concentration of 100 μM.
IC50 values were determined in triplicates at 12 concentrations with a dilution factor of three. Triplicates were measured on three different assay plates. The maximal compound assay concentration was set to 100 μM representing the compound assay concentration used in the primary screen. A larger maximal compound assay concentration could not be achieved since the maximal compound concentration on the compound plates was 10 mM (>1% DMSO concentration in the assay).

[3] = test system: C2C12 cells; assay: Cell viability assay (CellTiter-Glo / automated cell number) in C2C12; type: cell-based; details: Mus musculus, read-out: Inhibition of cell viability IC50
Text: as §1, §2

[4] = test system: HepG2 cells; assay: Cell viability assay (CellTiter-Glo / automated cell number) in HepG2; type: cell-based; details: Homo sapiens, read-out: Inhibition of cell viability IC50
Text: as §1, §2

[5] = test system: beta-TC6 insulinoma cells; assay: Insulin release by beta-TC6 cells, rat/mouse insulin ELISA, high glucose; type: cell-based; details: for activation at 5 µM: Mus musculus, group II, 2 h, high glucose (4.5 g/L), % increase in regard to DMSO control (set at 0%); for activation at 5 µM / Insulin release by beta-TC6 cells compared with positive control Sunitinib: 5 μM; for Insulin release by beta-TC6 cells compared with positive control Sunitinib: high glucose
Experimental: (§3) Release of insulin was detected using a rat/mouse insulin ELISA.
After incubation, the supernatant of the beta-TC6 insulinoma cells was diluted 1:20. The insulin release was measured with rat/mouse insulin ELISA (Merck Millipore Darmstadt, Cat. # EZRMI-13K) by following the manufacture protocol. The enzyme activity of the horseradish peroxidase of the immobilized biotinylated antibodies was monitored spectrophotometrically by the increased absorbency at 490 nm, and corrected by the absorbency at 610 nm.
as §3
The effect on the insulin release of each kinase depletion was monitored by using a rat/mouse insulin ELISA.
For the validation of the negative modulating kinases SCYL1, GRK5, and ADCK1, the target genes were depleted using four different siRNA-sequences each (FIG. 2A-D). The gene-depletion was measured via mRNA-levels after 72 hours while the insulin release was measured using a rat/mouse insulin ELISA after two hours incubation.

[6] = test system: 3T3-L1 cells; assay: Cell viability assay (CellTiter-Glo / automated cell number) in 3T3-L1; type: cell-based; details: Mus musculus, read-out: Inhibition of cell viability IC50
Text: as §1, §2

| SMILES | IC50 [2] | IC50 [4] | IC50 [1] | IC50 [3] | activation at 5 µM ([5]; Beta-TC6, 2 h) | IC50 [6] | activation at 5 µM ([5]; Beta-TC6) | Increase in insulin release ([5]; positive control of the siRNA validation, Sunitinib 5 μM, beta-TC6) | Insulin release by beta-TC6 cells compared with positive control Sunitinib [5] |
| --- | --- | --- | --- | --- | --- | --- | --- | --- | --- |
| Cc1ccc([C@@H](C)NC(=O)c2ccc3c(c2)/C(=C/c2[nH]c(C)c(C(=O)N4CCN(C)CC4)c2C)C(=O)N3)cc1 [II.32, (3Z)-3-({3,5-dimethyl-4-[(4-methylpiperazin-1-yl)carbonyl]-1H-pyrrol-2-yl}methylene)-N-[(1R)-1-(4-methylphenyl)ethyl]-2-oxoindoline-5-carboxamide] | 1000 to 2000 nM | 1230 nM | 1600 nM | 4250 nM | 143% | 700 nM | – | – | – |
| Cc1cccc(C(C)NC(=O)c2ccc3c(c2)/C(=C/c2[nH]c(C)c(C(=O)N4CCN(C)CC4)c2C)C(=O)N3)c1 (centres unmarked) [II.51, (3Z)-3-({3,5-dimethyl-4-[(4-methylpiperazin-1-yl)carbonyl]-1H-pyrrol-2-yl}methylene)-N-[1-(3-methylphenyl)ethyl]-2-oxoindoline-5-carboxamide] | 2000 to 10000 nM | 1110 nM | 1970 nM | 3340 nM | 252% | 1360 nM | – | – | – |
| Cc1[nH]c(/C=C2\C(=O)Nc3ccc(C(=O)O)cc32)c(C)c1C(=O)O [II.139, (3Z)-3-(4-carboxy-3,5-dimethyl-1H-pyrrol-2-ylmethylene)-2-oxo-2,3-dihydro-1H-indole-5-carboxylic acid] | 1000 to 2000 nM | > 10000 nM | > 10000 nM | > 10000 nM | – | 1340 nM | – | – | – |
| COC(=O)[C@@H](Cc1ccccc1)NC(=O)c1c(C)[nH]c(/C=C2\C(=O)Nc3ccc(C(=O)O)cc32)c1C [II.140, (3Z)-3-[4-((1R)-1-methoxycarbonyl-2-phenyl-ethylcarbamoyl)-3,5-dimethyl-1H-pyrrol-2-ylmethylene]-2-oxo-2,3-dihydro-1H-indole-5-carboxylic acid] | 1000 to 2000 nM | > 10000 nM | > 10000 nM | > 10000 nM | – | 4000 nM | – | – | – |
| COC(=O)[C@H](COC(C)(C)C)NC(=O)c1c(C)[nH]c(/C=C2\C(=O)Nc3ccc(C(=O)O)cc32)c1C [II.141, (3Z)-3-[4-(2-tert-butoxy-(1S)-1-methoxycarbonyl-ethylcarbamoyl)-3,5-dimethyl-1H-pyrrol-2-ylmethylene]-2-oxo-2,3-dihydro-1H-indole-5-carboxylic acid] | 2000 to 10000 nM | > 10000 nM | > 10000 nM | > 10000 nM | – | 3410 nM | – | – | – |
| CCN(CC)CCNC(=O)c1c(C)[nH]c(/C=C2\C(=O)Nc3ccc(F)cc32)c1C [Sunitinib, reference compound] | – | – | – | – | – | – | 80% | 76.52±13% | – |
| NC(=O)c1ccc(Nc2cc3[nH]c(-c4cccc(F)c4)cc3cn2)cc1 [compound 6, 4-[[2-(3-fluorophenyl)-1H-pyrrolo[3,2-c]pyridin-6-yl]amino]benzamide] | – | – | – | – | – | – | – | – | level similar to Sunitinib |
| Cn1c(-c2cccnc2)cc2c(Nc3cccc(C(F)(F)F)c3)nccc21 [compound 243, 1-methyl-2-(3-pyridyl)-N-[3-(trifluoromethyl)phenyl]pyrrolo[3,2-c]pyridin-4-amine] | – | – | – | – | – | – | – | – | better effect on the insulin release by beta-TC6 cells than the positive control Sunitinib |

The next lines start with results.

| IC50 [2] | IC50 [4] | SMILES | IC50 [1] | IC50 [3] | activation at 5 µM ([5]; Beta-TC6, 2 h) | IC50 [6] | activation at 5 µM ([5]; Beta-TC6) | Increase in insulin release ([5]; positive control of the siRNA validation, Sunitinib 5 μM, beta-TC6) | Insulin release by beta-TC6 cells compared with positive control Sunitinib [5] |
| --- | --- | --- | --- | --- | --- | --- | --- | --- | --- |
| 100 to 1000 nM | 630 nM | CCC(NC(=O)c1ccc2c(c1)/C(=C/c1[nH]c(C)c(C(=O)NCCN3CCCC3)c1C)C(=O)N2)c1ccc(F)c(F)c1 (centres unmarked) [II.10, (3Z)-N-[1-(3,4-difluorophenyl)propyl]-3-({3,5-dimethyl-4-[(2-pyrrolidin-1-ylethyl)carbamoyl]-1H-pyrrol-2-yl}methylene)-2-oxoindoline-5-carboxamide] | 670 nM | 3230 nM | 164% | > 10000 nM | – | – | – |
| 100 to 1000 nM | 800 nM | CCC(NC(=O)c1ccc2c(c1)/C(=C/c1[nH]c(C)c(C(=O)NCCN3CCCC3)c1C)C(=O)N2)c1cccc(Cl)c1 (centres unmarked) [II.11, (3Z)-N-[1-(3-chlorophenyl)propyl]-3-({3,5-dimethyl-4-[(2-pyrrolidin-1-ylethyl)carbamoyl]-1H-pyrrol-2-yl}methylene)-2-oxoindoline-5-carboxamide] | 960 nM | 3370 nM | 96% | > 10000 nM | – | – | – |
| 100 to 1000 nM | 1470 nM | Cc1[nH]c(/C=C2\C(=O)Nc3ccc(C(=O)N[C@H](C)c4ccc(Cl)cc4)cc32)c(C)c1C(=O)N1CCCC1 [II.67, (3Z)-N-[(1R)-1-(4-chlorophenyl)ethyl]-3-{[3,5-dimethyl-4-(pyrrolidin-1-ylcarbonyl)-1H-pyrrol-2-yl]methylene}-2-oxoindoline-5-carboxamide] | 1940 nM | 3940 nM | 159% | 1520 nM | – | – | – |
| 100 to 1000 nM | 1580 nM | CC[C@@H](NC(=O)c1ccc2c(c1)/C(=C/c1[nH]c(C)c(CCC(=O)O)c1C)C(=O)N2)c1ccccc1 [II.130, (3Z)-3-{2,4-dimethyl-5-[2-oxo-5-(1R)-(1-phenyl-propylcarbamoyl)-1,2-dihydro-indol-3-ylidenemethyl]-1H-pyrrol-3-yl}-propionic acid] | 8520 nM | > 10000 nM | 103% | > 10000 nM | – | – | – |
| 100 to 1000 nM | – | CCC(NC(=O)c1ccc2c(c1)/C(=C/c1[nH]c(C)c(CCC(=O)O)c1C)C(=O)N2)c1ccc(Cl)cc1 (centres unmarked) [II.132, (3Z)-3-(5-{5-[1-(4-chloro-phenyl)-propylcarbamoyl]-2-oxo-1,2-dihydro-indol-3-ylidenemethyl}-2,4-dimethyl-1H-pyrrol-3-yl)-propionic acid] | – | – | 117% | – | – | – | – |
| 100 to 1000 nM | – | CCC(NC(=O)c1ccc2c(c1)/C(=C/c1[nH]c(C)c(CCC(=O)O)c1C)C(=O)N2)c1ccc(F)c(F)c1 (centres unmarked) [II.133, (3Z)-3-(5-{5-[1-(3,4-difluoro-phenyl)-propylcarbamoyl]-2-oxo-1,2-dihydro-indol-3-ylidenemethyl}-2,4-dimethyl-1H-pyrrol-3-yl)-propionic acid] | – | – | 131% | – | – | – | – |
